Measurements: patent US20250129101A1, “Compound, Pharmaceutical Composition Comprising the Same and Method for Treating Cancer Using the Same” (NATIONAL TSING HUA UNIVERSITY, priority 2023, published 2025)

Legend:
4T1 R4 cells [1] = test: Cell viability assay, 4T1 R4 cells; assay type: cell-based, mouse; conditions: with 400 nM paclitaxel, 72 hr
Procedure: MCF-7, MDA-MB-231, MDA-MB-468, Hs578T, 4T1, and HeLa cell lines stably expressing H2B-mCherry and eGFP-tubulin (kindly provided by Dr. Anthony A. Hyman, Max-Planck-Institute for Molecular Cell Biology and Genetics, Dresden, Germany) were cultured in high-glucose Dulbecco's Modified Eagle Medium (DMEM). SK-BR-3 cells were cultured in McCoy's Modified 5a Medium. Hs578T cells were cultured in high-glucose DMEM supplemented with an additional 0.01 mg/mL bovine insulin. […] All mentioned media were supplemented with 10% fetal bovine serum (Gibco) and 1% Penicillin/Streptomycin (Corning), and cells were incubated at 37° C. in a humidified atmosphere containing 5% CO2. HEK293 cells were cultured in HE300 medium (GMEP incorporated, Japan) and maintained in suspension culture with 125 rpm and 8% CO2.
The cancer cells were cultured in a 96-well plate at a confluence of 1000-2000 cells/well with indicated drugs for specific days. When the time was up, the culture medium in the plate was aspirated and replaced with a prepared CellTiter-Glo reagent/DMEM mixture (1:1 mix of CellTiter-Glo reagent and serum-supplemented DMEM). After incubation for 10 min, the luminescence (proportional to the number of living cells) was measured with an ELISA plate reader to determine the cell viability.

KIF2C and tubulin = biological target: T1, KIF2C and tubulin (Homo sapiens, UniProt Q99661); test: KIF2C-tubulin affinity pull-down assay; assay type: binding
T1 construct: KIF2C (216-598 a.a.); made in house; host or cells: E. coli BL21 (DE3), pET-28a (KIF2C); tubulin from porcine brain (Cytoskeleton) or HEK293 cells
Procedure: The mixture was subjected to KIF2C pull-down with 50 μL of pre-equilibrated Ni-NTA resin. Residual tubulin that remained interacting with KIF2C was resolved by SDS-PAGE followed by Coomassie brilliant blue staining or western blotting.

[2] = tested on: HeLa cells expressing H2B-mCherry and eGFP-tubulin; test: Live-cell imaging of intracellular microtubule distribution; assay type: cell-based
Procedure: For the microtubule distribution analysis, HeLa cell line stably expressing H2B-mCherry and eGFP-tubulin (a kind gift from Anthony A. Hyman, Max-Planck-Institute for Molecular Cell Biology and Genetics, Dresden, Germany) were treated with KIF2C inhibitors (10 μM DHTP or 10 μM 7S9) during imaging. Live-cell imaging was conducted on a Nikon T1 inverted fluorescence microscope (Nikon) with a 60× oil objective (Nikon), a Prime camera (Photometrics), and 37° C., 5% CO2 heat stage (Live Cell Instrument). Microtubule morphological changes were imaged at 3-min intervals. Images were obtained using ImageJ software processed with Gaussian Blur to remove the noise.

4T1 S1 cells = test: Colony formation assay, 4T1 S1 cells; assay type: cell-based, mouse; conditions: 1 μM 7S9 with 400 nM paclitaxel
Procedure: (§1) To assess the long-term survival of breast cancer cell lines following the treatment of KIF2C knockdown or inhibition, the cells trypsinized into single-cell suspension were homogeneously seeded in 6-well cell culture plates at a density of 5000 cells per dish, supplemented with 2× complete medium (50% 4×DMEM, 20% FBS, 2% penicillin-streptomycin, ddH2O, and 2× glutaMAX™), agarose (0.6% for bottom agar layer; 0.3% for top cell layer), ddH2O, and DMEM. After incubation for 24 hr, cells were treated with indicated drugs, such as DMSO, KIF2C inhibitors, or chemotherapy drugs, and then cultured at 37° C. incubator in an atmosphere of humidified air with 5% CO2 for a further 14-30 days. When the cell colonies grew to appropriate sizes, the culture mediums were replaced with PBS for washing. After that, the plates were stained with 10% crystal violet and analyzed using Image J.

4T1 R4 cells [3] = test: Colony formation assay, 4T1 R4 cells; assay type: cell-based, mouse; conditions: 1 μM 7S9 with 400 nM paclitaxel
Procedure: as §1

4T1 R8 cells = test: Colony formation assay, 4T1 R8 cells; assay type: cell-based, mouse; conditions: 1 μM 7S9 with 400 nM paclitaxel
Procedure: as §1

4T1 R4 cells [4] = test: Time-lapse imaging of mitotic progression, 4T1 R4 cells; assay type: cell-based, mouse; conditions: 1 μM 7S9 and 400 nM paclitaxel
Procedure: To investigate the role of KIF2C in cell cycle progression, 4T1 cells were cultured in the 4-well chamber slide with about 50% confluence. The culture medium was replaced with a CO2-independent medium (Gibco) supplemented with 10% fetal bovine serum (Biological Industries) and 1% penicillin-streptomycin (Biowest). Then, each well of the chamber slide was treated with indicated drugs, such as DMSO, KIF2C inhibitors, or chemotherapy drugs. After that, the chamber slide was maintained in the microscope stage incubator with the supplement of humidified air with 5% CO2 at 37° C. Multiple-positional time-lapse imaging was performed using an automated Leica DM16000 inverted microscope equipped with HCX PL FL 20×/0.4 and EMCCD camera (Andor Luca R, Belfast, UK). Sequential differential interference contrast (DIC) images of cells obtained at indicated intervals were further analyzed using Metamorph software (Molecular Devices).

4T1 cells = test: In vivo tumor growth inhibition, 4T1 syngeneic model; design: species or system mouse; conditions: 4T1 tumors, BALB/c mice
Procedure: (§2) The mice were housed at the National Health Research Institute (NHRI) Animal Center in accordance with the Institutional Animal Care and Use Committee procedures and guidelines. The 4T1-derived cells, including 4T1, 4T1 R4, and 4T1 R8, used for implantation were harvested during log phase growth and resuspended in phosphate-buffered saline. Each mouse was injected s.c. in the right flank with 5×10^5 cells. After tumor size reached 60-100 mm 3 (D1), mice were divided into groups and received treatment with vehicle or different compounds alone or in combinations. Tumor size, in mm 3, was measured twice per week and calculated from Tumor volume=(w 2×1)/2, where w=width and 1=length in mm of the tumor. The values of tumor size were expressed as mean±SEM.

4T1 R4 = test: In vivo tumor growth inhibition, 4T1 R4 syngeneic model; design: species or system mouse; conditions: R4 tumors, BALB/c mice
Procedure: as §2

4T1 R8 = test: In vivo tumor growth inhibition, 4T1 R8 syngeneic model; design: species or system mouse; conditions: R8 tumors, BALB/c mice, 7S9 50 mg/kg with paclitaxel 15 mg/kg
Procedure: as §2

[5] = 7S9 50 mg/kg intraperitoneally, 5on/2off two cycles

T1 sequence (Q99661 216-598): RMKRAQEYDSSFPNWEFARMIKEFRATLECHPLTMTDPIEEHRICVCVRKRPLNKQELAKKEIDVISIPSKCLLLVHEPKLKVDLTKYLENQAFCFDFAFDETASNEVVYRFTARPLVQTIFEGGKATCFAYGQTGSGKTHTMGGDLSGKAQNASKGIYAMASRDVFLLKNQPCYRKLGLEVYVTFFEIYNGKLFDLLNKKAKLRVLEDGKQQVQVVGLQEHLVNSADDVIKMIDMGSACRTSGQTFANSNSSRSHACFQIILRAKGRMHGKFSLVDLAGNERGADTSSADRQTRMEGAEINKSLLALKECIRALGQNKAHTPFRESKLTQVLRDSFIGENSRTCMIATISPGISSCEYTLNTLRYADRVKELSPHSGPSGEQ

CCN1CCN(C(=O)COc2ccc(/C=c3\sc4n(c3=O)C(c3ccc(Cl)cc3)C(C(=O)OC(C)C)=C(C)N=4)cc2)CC1.O=C(O)/C=C\C(=O)O (stereo not drawn) [7S9 (133), isopropyl (Z)-5-(4-chlorophenyl)-2-(4-(2-(4-ethylpiperazin-1-yl)-2-oxoethoxy)benzylidene)-7-methyl-3-oxo-2,3-dihydro-5H-thiazolo[3,2-a]pyrimidine-6-carboxylate maleate]
fold increase of cell sensitivity to 7S9 by paclitaxel (4T1 R4 cells [1]): 10.5 fold
molecular interaction between KIF2C and tubulin (in words) (KIF2C and tubulin): increased by 7S9 in a dose-dependent manner
intracellular microtubule distribution phenotype (in words) [2]: puncta formation of tubulins in the cytoplasm
colony formation, combined treatment (in words) (4T1 S1 cells): did not further suppress colony formation
colony formation, combined treatment (in words) (4T1 R4 cells [3]): suppression of colony formation was detected only with combined treatment of 7S9 and paclitaxel
colony formation, combined treatment (in words) (4T1 R8 cells): suppression of colony formation was detected only with combined treatment of 7S9 and paclitaxel
mitotic defects, combined treatment (in words) (4T1 R4 cells [4]): induced significant defects in mitosis
tumor growth inhibition (4T1 cells; [5]): 20.3%
tumor growth inhibition, combination (4T1 cells; 7S9 50 mg/kg with paclitaxel 5 mg/kg): 62.6%
tumor growth inhibition (4T1 R4; [5]): 29%
tumor growth inhibition, combination (4T1 R4; 7S9 50 mg/kg with paclitaxel 15 mg/kg): 70.2%
tumor growth inhibition, combination (4T1 R8): 66.2%
